The results in this text go back to patent US11814444B2, “Cyclic polypeptides for PCSK9 inhibition” (Ra Pharmaceuticals, Inc., priority 2018, dated 2023).

Molecules are shown by their SMILES. Numbered stars: 1 amine (or outer) side, 2 acyl side, 3 side chain; on linkers, the order of the positions; unused ones are H or OH. Bridge positions count the residues as written; N and C are the ends. Square brackets hold non-standard residues; d marks the D form. Peptide text beside a SMILES is read from it. Phe(4-COOH) = N[C@@H](Cc1ccc(C(=O)O)cc1)C(=O)O; Trp(7-aza) = N[C@@H](Cc1c[nH]c2ncccc12)C(=O)O; NMeW = CN[C@@H](Cc1c[nH]c2ccccc12)C(=O)O; 1Nal = N[C@@H](Cc1cccc2ccccc12)C(=O)O; 2Nal = N[C@@H](Cc1ccc2ccccc2c1)C(=O)O; Ac4c(3,3-F2) = NC1(C(=O)O)CC(F)(F)C1; mXylylene = c1cc(C[*:1])cc(C[*:2])c1; Bta = N[C@@H](Cc1csc2ccccc12)C(=O)O; Gly(octyl) = CCCCCCCC[C@H](N)C(=O)O; Val(3-OH) = CC(C)(O)[C@H](N)C(=O)O; Aic = NC1(C(=O)O)Cc2ccccc2C1; Chg = N[C@H](C(=O)O)C1CCCCC1; Tle = CC(C)(C)[C@H](N)C(=O)O; αMeV = CC(C)[C@](C)(N)C(=O)O; hSer = N[C@@H](CCO)C(=O)O; Iva = CC[C@](C)(N)C(=O)O; Nva = CCC[C@H](N)C(=O)O; Ac4c = NC1(C(=O)O)CCC1; Mpa = O=C(O)CCS

For the experiment, the target named is human PCSK9 / human LDLR EGFa domain interaction (Homo sapiens, UniProt Q8NBP7). The experiment can be described thus: TR-FRET assay of inhibition of the PCSK9-LDLR protein-protein interaction. The settings on record: 20 nM avitag-biotinylated human PCSK9, 20 nM his-tagged human LDLR EGFa domain, 2 hours, room temperature. Format: binding. The protocol:
A time-resolved fluorescence resonance energy (TR-FRET) assay was used to measure inhibition of the PCSK9-LDLR protein-protein interaction. Briefly, 20 nM avitag-biotinylated human PCSK9 was incubated with 20 nM his-tagged human LDLR EGFa domain in the presence of 5 nM LANCE Ulight Streptavidin (Perkin Elmer) and 5 nM europium-Anti-6×His (Perkin Elmer) for 2 hours covered at room temperature in buffer containing 50 mM HEPES, 150 mM NaCl, 5 mM CaCl2), 0.01% BSA and 0.01% Surfactant P20. Compounds were tested in dose-response and concentrations giving half-maximal inhibition calculated using a 4-parameter fit equation.

human PCSK9 / human LDLR EGFa domain interaction, sequence (Q8NBP7 153-692): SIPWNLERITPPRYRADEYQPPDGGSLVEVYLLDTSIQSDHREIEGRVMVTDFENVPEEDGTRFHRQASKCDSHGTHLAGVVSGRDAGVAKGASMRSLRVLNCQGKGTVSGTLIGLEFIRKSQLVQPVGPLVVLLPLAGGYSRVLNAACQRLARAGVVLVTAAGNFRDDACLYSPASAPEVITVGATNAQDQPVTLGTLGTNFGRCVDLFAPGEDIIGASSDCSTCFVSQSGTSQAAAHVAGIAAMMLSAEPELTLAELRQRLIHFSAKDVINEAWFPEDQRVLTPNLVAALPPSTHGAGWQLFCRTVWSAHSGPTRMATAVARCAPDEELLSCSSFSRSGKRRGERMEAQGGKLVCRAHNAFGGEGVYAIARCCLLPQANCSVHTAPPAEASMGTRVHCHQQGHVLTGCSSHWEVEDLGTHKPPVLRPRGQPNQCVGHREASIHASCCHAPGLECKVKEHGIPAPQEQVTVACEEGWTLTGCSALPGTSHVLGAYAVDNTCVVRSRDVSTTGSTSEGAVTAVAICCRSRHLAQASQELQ
human PCSK9 / human LDLR EGFa domain interaction, sequence (Q8NBP7 31-152 partner limits assumed): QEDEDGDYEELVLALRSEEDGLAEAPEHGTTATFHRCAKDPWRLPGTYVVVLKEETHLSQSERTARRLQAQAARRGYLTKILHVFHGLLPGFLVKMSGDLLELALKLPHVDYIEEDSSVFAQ

The term IC50 denotes the concentration that gives 50% inhibition. A low value points to greater potency in that assay. As to `CCCCCCCC[C@@H]1NC(=O)[C@H](Cc2c[nH]c3ncccc23)NC(=O)[C@H]([C@@H](C)O)NC(=O)[C@@H]2CCCN2C(=O)[C@H](Cc2ccc(O)cc2)NC(=O)[C@H](C(C)(C)C)NC(=O)CCSCc2cccc(c2)CSC[C@@H](C(N)=O)NC(=O)[C@H]([C@@H](C)O)NC(=O)[C@H](CCC)NC(=O)[C@H](Cc2ccc(O)cc2)NC(=O)[C@H](C)NC1=O` [Compound 169] ([Mpa][Tle]YPT[Trp(7-aza)][Gly(octyl)]AY[Nva]TC-NH2; linker 1-12 via mXylylene), the concentration for half-maximal inhibition (IC50) fell in the range of 0.1 to 1 µM. Take `CCC[C@@H]1NC(=O)[C@H](Cc2c[nH]c3ncccc23)NC(=O)[C@H]([C@@H](C)O)NC(=O)[C@@H]2CCCN2C(=O)[C@H](Cc2ccc(O)cc2)NC(=O)[C@H](C(C)(C)C)NC(=O)CCSCc2cccc(c2)CSC[C@@H](C(N)=O)NC(=O)[C@H](CCC(=O)O)NC(=O)[C@H](C2CCCCC2)NC(=O)[C@H](Cc2ccc(O)cc2)NC(=O)[C@H](C)NC1=O` [Compound 171] ([Mpa][Tle]YPT[Trp(7-aza)][Nva]AY[Chg]EC-NH2; linker 1-12 via mXylylene): the half-inhibitory concentration (IC50) is 1 to 21 µM. `CCC[C@@H]1NC(=O)[C@H](Cc2ccc(O)cc2)NC(=O)[C@H](C)NC(=O)[C@H](CCC)NC(=O)[C@H](Cc2c[nH]c3ncccc23)NC(=O)[C@H]([C@@H](C)O)NC(=O)[C@@H]2CCCN2C(=O)[C@H](Cc2ccc(O)cc2)NC(=O)[C@H](C(C)(C)C)NC(=O)CCSCc2cccc(c2)CSC[C@@H](C(N)=O)NC(=O)[C@H](C)NC1=O` [Compound 172] ([Mpa][Tle]YPT[Trp(7-aza)][Nva]AY[Nva]AC-NH2; linker 1-12 via mXylylene) showed an IC50 of 1 to 21 µM. With `CCC[C@@H]1NC(=O)[C@H]([C@@H](C)O)NC(=O)[C@@H]2CCCN2C(=O)[C@H](Cc2ccc(O)cc2)NC(=O)[C@H](C(C)(C)C)NC(=O)[C@@H](NC(C)=O)CSCc2cccc(c2)CSC[C@@H](C(N)=O)NC(=O)[C@H]([C@@H](C)O)NC(=O)[C@](C)(C(C)C)NC(=O)[C@H](Cc2ccc(O)cc2)NC(=O)[C@H](C)NC1=O` [Compound 173] (Ac-C[Tle]YPT[Nva]AY[αMeV]TC-NH2; linker 1-11 via mXylylene), the IC50 fell in the range of 0.1 to 1 µM. Compound `CCC[C@@H]1NC(=O)[C@H](Cc2c[nH]c3ccccc23)NC(=O)[C@H]([C@@H](C)O)NC(=O)[C@@H]2CCCN2C(=O)[C@H](Cc2ccc(O)cc2)NC(=O)[C@H](C(C)(C)C)NC(=O)CCSCc2cccc(c2)CSC[C@@H](C(N)=O)NC(=O)[C@H]([C@@H](C)O)NC(=O)[C@](C)(C(C)C)NC(=O)[C@H](Cc2ccc(O)cc2)NC(=O)[C@H](C)NC1=O` [Compound 177] ([Mpa][Tle]YPTW[Nva]AY[αMeV]TC-NH2; linker 1-12 via mXylylene) displayed an IC50 of 1 to 21 µM. Turning to `CC[C@]1(C)NC(=O)[C@H](Cc2c[nH]c3ncccc23)NC(=O)[C@H]([C@@H](C)O)NC(=O)[C@@H]2CCCN2C(=O)[C@H](Cc2ccc(O)cc2)NC(=O)[C@H](C(C)(C)C)NC(=O)[C@@H](NC(C)=O)CSCc2cccc(c2)CSC[C@H](C(N)=O)NC(=O)[C@H]([C@@H](C)O)NC(=O)[C@](C)(C(C)C)NC(=O)[C@H](Cc2ccc(O)cc2)NC(=O)[C@H](C)NC1=O` [Compound 193] (Ac-C[Tle]YPT[Trp(7-aza)][Iva]AY[αMeV]T[dC]-NH2; linker 1-12 via mXylylene), the IC50 is 0.001 to 0.1 µM. In the case of `CC(=O)N[C@H]1CSCc2cccc(c2)CSC[C@H](C(N)=O)NC(=O)[C@H]([C@@H](C)O)NC(=O)[C@](C)(C(C)C)NC(=O)[C@H](Cc2ccc(O)cc2)NC(=O)[C@H](C)NC(=O)C2(CCC2)NC(=O)[C@H](Cc2c[nH]c3ncccc23)NC(=O)[C@H](C(C)(C)O)NC(=O)[C@@H]2CCCN2C(=O)[C@H](Cc2ccc(O)cc2)NC(=O)[C@H](C(C)(C)C)NC1=O` [Compound 194] (Ac-C[Tle]YP[Val(3-OH)][Trp(7-aza)][Ac4c]AY[αMeV]T[dC]-NH2; linker 1-12 via mXylylene), the IC50 fell in the range of 0.001 to 0.1 µM. `CC(=O)N[C@H]1CSCc2cccc(c2)CSC[C@H](C(N)=O)NC(=O)[C@H]([C@@H](C)O)NC(=O)[C@](C)(C(C)C)NC(=O)[C@H](Cc2ccc(O)cc2)NC(=O)[C@H](C)NC(=O)C2(CC(F)(F)C2)NC(=O)[C@H](Cc2c[nH]c3ncccc23)NC(=O)[C@H]([C@@H](C)O)NC(=O)[C@@H]2CCCN2C(=O)[C@H](Cc2ccc(O)cc2)NC(=O)[C@H](C(C)(C)C)NC1=O` [Compound 195] (Ac-C[Tle]YPT[Trp(7-aza)][Ac4c(3,3-F2)]AY[αMeV]T[dC]-NH2; linker 1-12 via mXylylene): the concentration for half-maximal inhibition (IC50) was 1 to 21 µM.

As to `CC(=O)N[C@H]1CSCc2cccc(c2)CSC[C@H](C(N)=O)NC(=O)[C@H]([C@@H](C)O)NC(=O)[C@](C)(C(C)C)NC(=O)[C@H](Cc2ccc(O)cc2)NC(=O)[C@H](C)NC(=O)C2(Cc3ccccc3C2)NC(=O)[C@H](Cc2c[nH]c3ncccc23)NC(=O)[C@H]([C@@H](C)O)NC(=O)[C@@H]2CCCN2C(=O)[C@H](Cc2ccc(O)cc2)NC(=O)[C@H](C(C)(C)C)NC1=O` [Compound 196] (Ac-C[Tle]YPT[Trp(7-aza)][Aic]AY[αMeV]T[dC]-NH2; linker 1-12 via mXylylene), the IC50 is 0.1 to 1 µM. Compound `CCC[C@@H]1NC(=O)[C@H](Cc2c[nH]c3ncccc23)NC(=O)[C@H]([C@@H](C)O)NC(=O)[C@@H](Cc2cnc[nH]2)NC(=O)[C@H](Cc2ccc(O)cc2)NC(=O)[C@H](C(C)(C)C)NC(=O)CCSCc2cccc(c2)CSC[C@@H](C(N)=O)NC(=O)[C@H]([C@@H](C)O)NC(=O)[C@H](CCC)NC(=O)[C@H](Cc2ccc(O)cc2)NC(=O)[C@H](CCC(=O)O)NC1=O` [Compound 204] ([Mpa][Tle]Y[dH]T[Trp(7-aza)][Nva]EY[Nva]TC-NH2; linker 1-12 via mXylylene) came in with an IC50 of 1 to 21 µM. `CCC[C@@H]1NC(=O)[C@H](Cc2ccc(O)cc2)NC(=O)[C@H](CCC(=O)O)NC(=O)[C@H](CCC)NC(=O)[C@H](Cc2c[nH]c3ccccc23)N(C)C(=O)[C@H]([C@@H](C)O)NC(=O)[C@H](Cc2c[nH]cn2)NC(=O)[C@H](Cc2ccc(O)cc2)NC(=O)[C@H](C(C)(C)C)NC(=O)CCSCc2cccc(c2)CSC[C@@H](C(N)=O)NC(=O)[C@H]([C@@H](C)O)NC1=O` [Compound 206] ([Mpa][Tle]YHT[NMeW][Nva]EY[Nva]TC-NH2; linker 1-12 via mXylylene) returned an IC50 of 50 to 100 µM.

The compound `CCC[C@@H]1NC(=O)[C@H](Cc2c[nH]c3ncccc23)NC(=O)[C@H]([C@@H](C)O)NC(=O)[C@H](Cc2c[nH]cn2)NC(=O)[C@H](Cc2ccc(O)cc2)NC(=O)[C@H](C(C)(C)C)NC(=O)CCSCc2cccc(c2)CSC[C@@H](C(N)=O)NC(=O)[C@H]([C@@H](C)O)NC(=O)[C@H](CCC)NC(=O)[C@H](Cc2ccc(O)cc2)NC(=O)[C@H](CCO)NC1=O` [Compound 274] ([Mpa][Tle]YHT[Trp(7-aza)][Nva][hSer]Y[Nva]TC-NH2; linker 1-12 via mXylylene) yielded a half-inhibitory concentration (IC50) of 0.1 to 1 µM. In turn, `CCC[C@@H]1NC(=O)[C@H](Cc2csc3ccccc23)NC(=O)[C@H]([C@@H](C)O)NC(=O)[C@H](Cc2c[nH]cn2)NC(=O)[C@H](Cc2ccc(O)cc2)NC(=O)[C@H](C(C)(C)C)NC(=O)CCSCc2cccc(c2)CSC[C@@H](C(N)=O)NC(=O)[C@H]([C@@H](C)O)NC(=O)[C@H](CCC)NC(=O)[C@H](Cc2ccc(O)cc2)NC(=O)[C@H](CCC(=O)O)NC1=O` [Compound 275] ([Mpa][Tle]YHT[Bta][Nva]EY[Nva]TC-NH2; linker 1-12 via mXylylene) displayed a 50% inhibitory concentration (IC50) of 0.1 to 1 µM. The same measure for `CCC[C@@H]1NC(=O)[C@H](Cc2ccc3ccccc3c2)NC(=O)[C@H]([C@@H](C)O)NC(=O)[C@H](Cc2c[nH]cn2)NC(=O)[C@H](Cc2ccc(O)cc2)NC(=O)[C@H](C(C)(C)C)NC(=O)CCSCc2cccc(c2)CSC[C@@H](C(N)=O)NC(=O)[C@H]([C@@H](C)O)NC(=O)[C@H](CCC)NC(=O)[C@H](Cc2ccc(O)cc2)NC(=O)[C@H](CCC(=O)O)NC1=O` [Compound 276] ([Mpa][Tle]YHT[2Nal][Nva]EY[Nva]TC-NH2; linker 1-12 via mXylylene): 1 to 21 µM; for `CCC[C@@H]1NC(=O)[C@H](Cc2cccc3ccccc23)NC(=O)[C@H]([C@@H](C)O)NC(=O)[C@H](Cc2c[nH]cn2)NC(=O)[C@H](Cc2ccc(O)cc2)NC(=O)[C@H](C(C)(C)C)NC(=O)CCSCc2cccc(c2)CSC[C@@H](C(N)=O)NC(=O)[C@H]([C@@H](C)O)NC(=O)[C@H](CCC)NC(=O)[C@H](Cc2ccc(O)cc2)NC(=O)[C@H](CCC(=O)O)NC1=O` [Compound 277] ([Mpa][Tle]YHT[1Nal][Nva]EY[Nva]TC-NH2; linker 1-12 via mXylylene): 0.1 to 1 µM; for `CCC[C@@H]1NC(=O)[C@H](Cc2c[nH]c3ncccc23)NC(=O)[C@H]([C@@H](C)O)NC(=O)[C@H](Cc2c[nH]cn2)NC(=O)[C@H](Cc2ccc(O)cc2)NC(=O)[C@H](C(C)(C)C)NC(=O)CCSCc2cccc(c2)CSC[C@@H](C(N)=O)NC(=O)[C@H]([C@@H](C)O)NC(=O)[C@H](CCC)NC(=O)[C@H](Cc2ccc(O)cc2)NC(=O)[C@H](Cc2ccc(C(=O)O)cc2)NC1=O` [Compound 278] ([Mpa][Tle]YHT[Trp(7-aza)][Nva][Phe(4-COOH)]Y[Nva]TC-NH2; linker 1-12 via mXylylene): 21 to 50 µM. `CCC[C@@H]1NC(=O)[C@H](Cc2c[nH]c3ncccc23)NC(=O)[C@H]([C@@H](C)O)NC(=O)[C@H](Cc2c[nH]cn2)NC(=O)[C@H](Cc2ccc(O)cc2)NC(=O)[C@H](C(C)(C)C)NC(=O)CCSCc2cccc(c2)CSC[C@@H](C(N)=O)NC(=O)[C@H]([C@@H](C)O)NC(=O)[C@H](C2CCCCC2)NC(=O)[C@H](Cc2ccc(O)cc2)NC(=O)[C@H](CCC(=O)O)NC1=O` [Compound 285] ([Mpa][Tle]YHT[Trp(7-aza)][Nva]EY[Chg]TC-NH2; linker 1-12 via mXylylene) came in with an IC50 of 0.1 to 1 µM.
